Data as given in patent publication US11203591B2, “Substituted 6-azabenzimidazole compounds” (Gilead Sciences, Inc., priority 2018, dated 2021).

Molecular target: human HPK1 (MAP4K1) (Homo sapiens (Human), UniProt Q92918)
Experiment: HPK1 IC50 Assay (TR-FRET peptide phosphorylation)
Type: biochemical
Conditions: 0.15 nM HPK1, 10 μM ATP, 1 μM STK S1 peptide substrate; geometric mean
Outline: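 Readout: TR-FRET (665 nm/620 nm) after EDTA stop, detecting STK S1 peptide (1 μM) phosphorylation by 0.15 nM HPK1 kinase domain, ATP-pre-activated, at 10 μM ATP over 3 h, 25° C, pH 7.0. IC50s from four-parameter variable-slope fits, normalized to staurosporine and DMSO, averaged geometrically.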

Chain of human HPK1 (MAP4K1) (Q92918 17-274): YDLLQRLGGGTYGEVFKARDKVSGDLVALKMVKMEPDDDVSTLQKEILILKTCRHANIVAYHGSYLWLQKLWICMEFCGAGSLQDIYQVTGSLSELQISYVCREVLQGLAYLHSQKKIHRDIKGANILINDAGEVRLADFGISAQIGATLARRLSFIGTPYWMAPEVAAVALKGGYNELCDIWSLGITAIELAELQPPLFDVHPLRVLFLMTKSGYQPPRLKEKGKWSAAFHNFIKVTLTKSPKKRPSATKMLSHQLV

Row | Compound | IC50 [nM]
1 | CC(C)n1cnc2cc(-c3ccc4c(c3)N([C@H]3C[C@@](C)(N5CCCCC5)C3)C(=O)C4(C)C)nc(Nc3cc(C(=O)NC4(CF)CC4)c(Cl)cc3F)c21 [Example 293, 2-chloro-5-((6-(3,3-dimethyl-1-((1s,3s)-3-methyl-3-(piperidin-1-yl)cyclobutyl)-2-oxoindolin-6-yl)-3-isopropyl-3H-imidazo[4,5-c]pyridin-4-yl)amino)-4-fluoro-N-(1-(fluoromethyl)cyclopropyl)benzamide] | 0.05
2 | CC(C)n1cnc2cc(-c3ccc4c(c3)N([C@H]3C[C@@](C)(N5CCCCC5)C3)C(=O)C4(C)C)nc(Nc3cc(C(=O)NC4(C(F)F)CC4)c(Cl)cc3F)c21 [Example 294, 2-chloro-N-(1-(difluoromethyl)cyclopropyl)-5-((6-(3,3-dimethyl-1-((1s,3s)-3-methyl-3-(piperidin-1-yl)cyclobutyl)-2-oxoindolin-6-yl)-3-isopropyl-3H-imidazo[4,5-c]pyridin-4-yl)amino)-4-fluorobenzamide] | 0.08
3 | Cc1cc(F)c(Nc2nc(-c3ccc4c(c3)N([C@]3(C)C[C@H](N5CCCCC5)C3)C(=O)C4(C)C)cc3ncn(C(C)C)c23)cc1C(=O)NC1(C(F)F)CC1 [Example 295, N-(1-(difluoromethyl)cyclopropyl)-5-((6-(3,3-dimethyl-1-((1s,3s)-1-methyl-3-(piperidin-1-yl)cyclobutyl)-2-oxoindolin-6-yl)-3-isopropyl-3H-imidazo[4,5-c]pyridin-4-yl)amino)-4-fluoro-2-methylbenzamide] | 0.1
4 | CC(C)n1cnc2cc(-c3ccc4c(c3)N([C@]3(C)C[C@H](N5CCCCC5)C3)C(=O)C4(C)C)nc(Nc3cc(C(=O)NC4(C(F)F)CC4)c(Cl)c(F)c3F)c21 [Example 296, 2-Chloro-N-(1-(difluoromethyl)cyclopropyl)-5-((6-(3,3-dimethyl-1-((1s,3s)-1-methyl-3-(piperidin-1-yl)cyclobutyl)-2-oxoindolin-6-yl)-3-isopropyl-3H-imidazo[4,5-c]pyridin-4-yl)amino)-3,4-difluorobenzamide] | 0.1
5 | CC(C)n1cnc2cc(-c3cnc4c(c3)N([C@]3(C)C[C@H](N5CCCCC5)C3)C(=O)C4(C)C)nc(Nc3cc(C(=O)NC4(C(F)F)CC4)c(Cl)c(F)c3F)c21 [Example 297, 2-Chloro-N-(1-(difluoromethyl)cyclopropyl)-5-((6-(3,3-dimethyl-1-((1s,3s)-1-methyl-3-(piperidin-1-yl)cyclobutyl)-2-oxo-2,3-dihydro-1H-pyrrol[3,2-b]pyridin-6-yl)-3-isopropyl-3H-imidazo[4,5-c]pyridin-4-yl)amino)-3,4-difluorobenzamide] | 0.2
6 | N-(1-(difluoromethyl)cyclopropyl)-5-((6-(3,3-dimethyl-1-((1s,3s)-3-methyl-3-(piperidin-1-yl)cyclobutyl)-2-oxo-2,3-dihydro-1H-pyrrolo[3,2-b]pyridin-6-yl)-3-isopropyl-3H-imidazo[4,5-c]pyridin-4-yl)amino)-2,3,4-trifluorobenzamide [Example 280] | 0.05
